Patent US20070088086A1, “Method of using synthetic L-Se-methylselenocysteine as a nutriceutical and a method of its synthesis” (PharmaSe, Incorporated, priority 1999, published 2007)

Key:
mammary tumors = conditions: 1 and 2 ppm in rats' diets; cited from earlier work
[1] = test system: pre-neoplastic and tumor cell lines; conditions: cited from earlier work
[2] = Acute toxicity in a mouse (FIG. 3); conditions: in vivo
Procedure: FIG. 3 is a graphic comparison showing the acute toxicity of L-Se-methylselenocysteine in a mouse versus the acute toxicity of selenomethionine in rats.
(§1) FIG. 1 illustrates a comparison between L-Se-methylselenocysteine and L-selenomethionine, and their effect on the growth of normal rabbit fibroblasts. Tests were performed at varying concentrations of L-Se-methylselenocysteine and L-selenomethionine over a three-day period. The amount of cellular growth, as measured by DNA synthesis, that could be stimulated by calf serum at the end of this period was assessed by the addition of tritiated thymidine.

[3] = In vitro lucigenin chemiluminescence (CL) assay of superoxide generation in the presence of GSH
Procedure: Methylseleninic acid (CH3SeOOH) was a dissolved in distilled water. Using a Rannin micropipette, aliquots were added directly to 1.0 ml of a buffered cocktail solution. The buffered cocktail solution was comprised of lucigenin (20 μg/ml), reduced glutathione (GSH) (4 mg/ml), and either sodium borate (0.05M) or sodium phosphate (0.05M), all purchased from Sigma Chemical Co. Two different buffered cocktail solutions were employed: the cocktail containing sodium borate was used for experiments at pH 9.2, which is optimum for the generation, detection and quenching of selenium catalyzed superoxide; and the cocktail containing sodium phosphate was used for experiments at pH 7.4, which is reflective of physiological conditions. One ml of the cocktail solution was added to a 10×50 mm polypropylene tube for use in the chemiluminescence (CL) assay. Chemiluminescence, using lucigenin as the detector of superoxide, was counted in repetitive integrated 30 second increments over time using a Los Alamos Diagnostics (Model 535) chemiluminometer, to which was attached a LKB Model 2209 circulating water bath that held the tube at 36° C. All chemical test assays and controls were performed by the addition of methylseleninic acid directly to the luminometer test tube in the counting chamber. Superoxide dismutase, SOD, purchased from Sigma Chemical Co., was added to the test tube prior to the addition of the methylseleninic acid and used to quench the chemiluminescent reactions.
The complete chemiluminescence cocktail (containing buffer, lucigenin and GSH) produced very low, yet detectable amounts of background chemiluminescence at both a pH of 9.2 and 7.4. This was most likely due to the ambient spontaneous oxidation of GSH, but was not significant to the tests performed. […] Thus the chemiluminescence produced and quantitated in these assays can be attributable to the generation of superoxide. […] The chemiluminescence generated by selenoate catalysis may be used to quantitatively approximate the amount of catalytic selenium present.

[4] = test system: normal rabbit fibroblasts; test: Growth of normal rabbit fibroblasts, DNA synthesis by tritiated thymidine (FIG. 1); format: cell-based; conditions: three-day period, compared with selenomethionine
Procedure: FIG. 1 is a graphic comparison between L-Se-methylselenocysteine and L-selenomethionine and their effect on the growth of normal rabbit fibroblasts.
as §1

human cancer cells = test: Toxicity to cancer cells, same protocol as normal cells (FIG. 2); format: cell-based; conditions: compared with selenomethionine
Procedure: FIG. 2 is a graphic comparison showing that L-Se-methylselenocysteine is more toxic to human cancer cells than L-selenomethionine.
as §1

[5] = Solubility of the obtained amino acid in solvents; format: physicochemical
Description: It is contemplated that ion exchange chromatography may be used to purify the amino acid. It is also possible that, on a larger scale, L-Se-methylselenocysteine may be crystallized. […] Accordingly, ethanol may be one likely crystallization solvent.

rats = conditions: acute toxicity, reported (Spallholz, 1994); cited from earlier work
colon carcinogenisis = conditions: dietary 1.0-2.0 ppm; cited from earlier work
[6] = test system: lung, cholorectal and prostate cancer; conditions: dietary supplement up to 200 μg/Se/day more than that found in foods; cited from earlier work
[7] = selenol or thiol group; cited from earlier work
cells in culture = conditions: cited from earlier work

## C[Se]C[C@H](N)C(=O)O (racemic) [Se-methylselenocysteine]
Mammary tumors
  appearance of palpable mammary tumors: decreases the appearance of palpable mammary tumors
[1]
  anticancer effects (cell morphology, cell number, DNA strand breaks): beneficial anticancer effects

## C[Se]C[C@H](N)C(=O)O [L-Se-methylselenocysteine]
[2]
  LD50: 8 mg/kg
[3]; pH not stated
  superoxide generation / chemiluminescence in the in vitro CL assay: do not generate superoxide
[4]
  toxicity to normal cells (growth, DNA synthesis): less toxic to normal cells
Human cancer cells
  toxicity to cancer cells: more toxic to cancer cells
[5]; in ethanol
  solubility: sparingly soluble
[5]; in methanol
  solubility: fairly soluble
[5]; in water
  solubility: soluble

## C[Se]CC[C@H](N)C(=O)O [L-selenomethionine]
[3]; pH not stated
  superoxide generation / chemiluminescence in the in vitro CL assay: do not generate superoxide
rats
  LD50: 4.25 mg/kg
Colon carcinogenisis
  effect on the promotional stages of rat colon carcinogenisis: inhibitory effect
[6]
  cancer incidence in humans: reduce the incidence of lung, cholorectal and prostate cancer

## N[C@@H](CS)C(=O)O [cysteine]
[7]
  pKa: 8-9

## C[Se](=O)O [methylseleninic acid, Methylseleninic acid]
[3]; FIG. 4, GSH reduction
  lowest level at which chemiluminescence (superoxide generation) could be detected: 0.56 nanomoles of selenium
[3]; pH 7.4, 100 units of SOD
  quenching of chemiluminescence by SOD: quenched most of the chemiluminescence activity
[3]; pH 7.4, complete cocktail with GSH and lucigenin
  chemiluminescence: produced chemiluminescence
[3]; pH 9.2, 100 units of SOD added prior
  quenching of chemiluminescence by SOD: quenched an initial burst of chemiluminescence activity
[3]; pH 9.2, complete cocktail with GSH and lucigenin
  superoxide generation (chemiluminescence): generated superoxide
[3]; without GSH, pH 9.2 and 7.4
  chemiluminescence with lucigenin alone: produced no additional chemiluminescence
[3]; without lucigenin, pH 9.2 and 7.4
  chemiluminescence with GSH alone: produced no additional chemiluminescence

## C[SeH] [methylselenol]
[3]; pH not stated
  superoxide generation / chemiluminescence in the in vitro CL assay: very active redox compound producing superoxide

## CS [methylthiol]
[3]; pH not stated
  quenching of chemiluminescence by SOD: SOD did not significantly quench the chemiluminescence
  superoxide generation / chemiluminescence in the in vitro CL assay: only a fraction of the amount of chemiluminescence as compared to methylselenol

## O=[Se](O)O [selenite]
Cells in culture
  induction of apoptosis: induces DNA ladders and apoptosis

## N[C@@H](C[SeH])C(=O)O [selenocysteine]
[7]
  pKa: 5.25
